From PubChem BioAssay (NCI)
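Interpolation was linear, between the two tested concentrations surrounding the appropriate level; five concentrations were tested over 48 hours in 96-well plates. GI50 marks 50% less growth. TGI marks complete inhibition of growth.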 Where a SMILES comes first, the peptide text is derived from it. [ ]: non-standard residue; d: D form. Phe(4-Cl) = N[CH](Cc1ccc(Cl)cc1)C(=O)O

Legend:
Assay in all cases: NCI tumour cell line growth inhibition, 48 h
MDA-N = tested on: MDA-N
HS 578T breast = tested on: HS 578T breast
M19-MEL melanoma = tested on: M19-MEL melanoma
KM20L2 colon = tested on: KM20L2 colon
SNB-78 CNS = tested on: SNB-78 CNS
DMS 114 small cell lung = tested on: DMS 114 small cell lung
DLD-1 colon = tested on: DLD-1 colon
XF 498 CNS = tested on: XF 498 CNS
RXF-631 renal = tested on: RXF-631 renal

CCc1[nH]c(=O)nc(N)c1-c1ccc(N2CCCCC2)c([N+](=O)[O-])c1
TGI (MDA-N): > 100 µM | TGI (HS 578T breast): > 100 µM

Cc1ccc2nc3c(C(=O)NCCN(C)C)cccc3nc2c1
TGI (M19-MEL melanoma): 7.29 µM | TGI (KM20L2 colon): 18.2 µM | TGI (SNB-78 CNS): 41.1 µM | TGI (DMS 114 small cell lung): 11.6 µM

CCOC(=O)c1c(CN2CCN(c3ccccc3)CC2)n(-c2ccccc2)c2cc(Br)c(O)cc12
GI50 (HS 578T breast): 14.4 µM | TGI (HS 578T breast): > 100 µM

CCN(CC)c1ccc(C(=N)c2ccc(N(CC)CC)cc2)cc1
GI50 (HS 578T breast): 0.59 µM | TGI (HS 578T breast): 2.39 µM

CC1(n2nc(-c3ccccc3)n(-c3ccccc3)c2=O)CSC1
TGI (DLD-1 colon): > 100 µM | TGI (XF 498 CNS): > 100 µM | TGI (M19-MEL melanoma): > 100 µM | TGI (KM20L2 colon): > 100 µM | TGI (SNB-78 CNS): > 100 µM | TGI (DMS 114 small cell lung): > 100 µM

Cc1cc(SCC(=O)c2ccccc2)nc2ccccc12
TGI (HS 578T breast): 64.8 µM

O=C(N/N=C/c1cccc(O)c1O)c1ccccc1
GI50 (HS 578T breast): 10.5 µM | TGI (HS 578T breast): > 100 µM

O=C(Nc1ccc(Cl)cc1)c1cc(-c2ccc(F)cc2)c2sc(=O)[nH]c2n1
GI50 (HS 578T breast): 2.13 µM | TGI (HS 578T breast): 13.1 µM

CCOC(=O)Sc1ncnc2nc[nH]c12
GI50 (HS 578T breast): 13.8 µM | TGI (HS 578T breast): > 100 µM

NC(=S)N/N=C/c1ccc(OC(=O)COc2ccc(Cl)cc2)cn1
GI50 (HS 578T breast): 2.86 µM | TGI (HS 578T breast): > 100 µM

CC1CN1CC(O)C(O)CN1CC1C (configuration not stated)
GI50 (HS 578T breast): 11.3 µM | TGI (HS 578T breast): 57.4 µM

c1ccc(C2=NNC3c4ccccc4-c4ccccc4N3C2)cc1 (configuration not stated)
TGI (MDA-N): > 100 µM | TGI (HS 578T breast): > 100 µM

NCCCC[C@@H]1NC(=O)[C@H]2CCCN2C(=O)[C@H](Cc2ccccc2)NC(=O)[C@H](Cc2ccccc2)CNC1=O
GI50 (HS 578T breast): > 100 µM | TGI (HS 578T breast): > 100 µM

Clc1nc(Cl)c2ncn(Cc3cccc(COc4cccc(OCc5cccc(Cn6cnc7c(Cl)nc(Cl)nc76)c5)c4)c3)c2n1
GI50 (HS 578T breast): > 100 µM | TGI (HS 578T breast): > 100 µM

CC/C=C\C[C@@H]1C/C=C2/C(=O)C=C[C@H]2C/C=C\CCCC(=O)O1
GI50 (HS 578T breast): 2.84 µM | TGI (HS 578T breast): 9.11 µM

Cn1cc(C(=O)c2ccccc2)ccc1=O
TGI (DLD-1 colon): > 100 µM | TGI (XF 498 CNS): > 100 µM | TGI (M19-MEL melanoma): > 100 µM | TGI (KM20L2 colon): > 100 µM | TGI (SNB-78 CNS): > 100 µM | TGI (DMS 114 small cell lung): > 100 µM

Cc1noc(C)c1CCCOC1COc2ccccc2OCCOCCOc2ccccc2OC1
TGI (DLD-1 colon): > 100 µM | TGI (XF 498 CNS): > 100 µM | TGI (M19-MEL melanoma): > 100 µM | TGI (KM20L2 colon): > 100 µM | TGI (SNB-78 CNS): > 100 µM | TGI (DMS 114 small cell lung): > 100 µM

CC(=O)[CH-]C(=O)c1ccccc1.CC(=O)[CH-]C(=O)c1ccccc1.O=C([O-])c1ccc([O-])cc1.O=C([O-])c1ccc([O-])cc1.[Ti+4]
GI50 (DLD-1 colon): > 100 µM | TGI (DLD-1 colon): > 100 µM | GI50 (KM20L2 colon): 51.1 µM | TGI (KM20L2 colon): > 100 µM

CC(C)(C)OC(=O)Cc1ccc2c(ccn2Cc2ccccc2)c1
TGI (DLD-1 colon): > 100 µM | TGI (M19-MEL melanoma): > 100 µM | TGI (RXF-631 renal): > 100 µM | TGI (KM20L2 colon): 77.2 µM | TGI (SNB-78 CNS): > 100 µM | TGI (DMS 114 small cell lung): > 100 µM

CCCCN=C(N)c1ccc(OCCSCCOc2ccc(C(N)=NCCCC)cc2)cc1
GI50 (HS 578T breast): 34.2 µM | TGI (HS 578T breast): > 100 µM

Nc1ccc(/C=C/c2ccnc3ccccc23)cc1
TGI (DLD-1 colon): > 100 µM | TGI (M19-MEL melanoma): 90 µM | TGI (KM20L2 colon): 46.6 µM | TGI (DMS 114 small cell lung): 45.8 µM

COc1cc(NC(=O)c2cc(O)c(CC=C(C)C)c(O)c2)cc2c1O[C@]1(C)CC[C@@H](O)C(C)(C)[C@H]1C2
GI50 (HS 578T breast): 0.456 µM | TGI (HS 578T breast): 15.5 µM

Nc1ncc(-c2cnn(CCO)c2)c2scc(-c3ccc(NC(=O)Nc4cccc(F)c4)cc3)c12
GI50 (HS 578T breast): 0.273 µM | TGI (HS 578T breast): 3.02 µM

NC(CC(=O)OCc1ccccc1)C(=O)OCc1ccccc1 (configuration not stated)
TGI (MDA-N): > 100 µM | TGI (HS 578T breast): > 100 µM

COc1cc(C2=NN(C(C)=O)C(c3ccc(OC(C)=O)cc3OC(C)=O)O2)c(OC(C)=O)c2ccccc12 (configuration not stated)
GI50 (HS 578T breast): 13.1 µM | TGI (HS 578T breast): > 100 µM

COC(=O)Nc1nc2ccc(Oc3ccc(NC(=O)Nc4ccccc4)cc3)cc2[nH]1
GI50 (HS 578T breast): 0.0921 µM | TGI (HS 578T breast): 4.45 µM

CCCCCCCCCCCCCC1CCC(CC)N1 (configuration not stated)
TGI (DLD-1 colon): 28.9 µM | TGI (M19-MEL melanoma): 10.6 µM | TGI (KM20L2 colon): 26.2 µM | TGI (SNB-78 CNS): 30.4 µM | TGI (DMS 114 small cell lung): 17.4 µM

COc1cc[nH]c1/C=C1\C(=O)Nc2ccccc21
GI50 (HS 578T breast): 5.91 µM | TGI (HS 578T breast): > 25 µM

N.N.N.N.N.O=C([O-])c1nn[n-]n1.[Cl-].[Co+3]
GI50 (DLD-1 colon): > 100 µM | TGI (DLD-1 colon): > 100 µM | GI50 (KM20L2 colon): > 100 µM | TGI (KM20L2 colon): > 100 µM | GI50 (SNB-78 CNS): > 100 µM | TGI (SNB-78 CNS): > 100 µM

COc1ccc2c(c1)C=C([N+](=O)[O-])C(C1OC(C)(C)OC1C1COC(C)(C)O1)O2 (configuration not stated)
TGI (DLD-1 colon): 3.15 µM | TGI (XF 498 CNS): 22.9 µM | TGI (M19-MEL melanoma): 3.31 µM | TGI (KM20L2 colon): 17.3 µM | TGI (SNB-78 CNS): 11.8 µM | TGI (DMS 114 small cell lung): 8.55 µM | TGI (HS 578T breast): > 100 µM

O=C1c2ccccc2-c2c1c1ccccc1c(=O)n2Cc1ccccc1
TGI (MDA-N): > 100 µM | TGI (HS 578T breast): > 100 µM

COc1cc(OC)c(/C=C/C(=O)c2c(OC)cccc2OC)c(OC)c1
GI50 (HS 578T breast): 1.28 µM | TGI (HS 578T breast): > 36.3 µM

O=C(CCl)Nc1ccc(Cl)cc1
GI50 (HS 578T breast): 3.96 µM | TGI (HS 578T breast): 42.4 µM

COC(=O)C(=O)C(C(=O)C(=O)Nc1ccccc1C(N)=O)c1nc2ccc(Cl)cc2[nH]c1=O (configuration not stated)
TGI (MDA-N): > 100 µM | TGI (HS 578T breast): > 100 µM

Fc1cc(F)c(COc2cc(Cn3cnc4c(Cl)nc(Cl)nc43)ccc2C23CC4CC(CC(C4)C2)C3)cc1F
GI50 (HS 578T breast): 22.9 µM | TGI (HS 578T breast): 60.9 µM

CN(C)P(=O)(/C(N)=N/Nc1ccc([N+](=O)[O-])cc1)N(C)C
TGI (DLD-1 colon): > 100 µM | TGI (XF 498 CNS): > 100 µM | TGI (M19-MEL melanoma): > 100 µM | TGI (KM20L2 colon): > 100 µM | TGI (SNB-78 CNS): > 100 µM | TGI (DMS 114 small cell lung): > 100 µM

CC(O)C(NC(=O)C(Cc1ccccc1)NC(=O)C(NC(=O)C(CCCCN)NC(=O)C(Cc1c[nH]c2ccccc12)NC(=O)C(Cc1ccc(O)cc1)NC(=O)C(Cc1ccc(Cl)cc1)NC(=O)C(N)Cc1ccccc1)C(C)O)C(N)=O (configuration not stated) (H-F[Phe(4-Cl)]YWKTFT-NH2; configuration not given here)
TGI (DLD-1 colon): 59.5 µM | TGI (XF 498 CNS): 28.9 µM | TGI (M19-MEL melanoma): 40.2 µM | TGI (RXF-631 renal): 42.4 µM | TGI (KM20L2 colon): 48.7 µM | TGI (SNB-78 CNS): 61 µM | TGI (DMS 114 small cell lung): 37.8 µM

NC1=NN(c2ccccc2)C(=O)C1C(=O)CCC(=O)Nc1cccc(C(F)(F)F)c1 (configuration not stated)
TGI (DLD-1 colon): > 100 µM | TGI (M19-MEL melanoma): > 100 µM | TGI (RXF-631 renal): > 100 µM | TGI (KM20L2 colon): > 100 µM | TGI (SNB-78 CNS): > 100 µM | TGI (DMS 114 small cell lung): > 100 µM

Cc1ccccc1N(CCC#N)C1=NN(C(=O)CC(=O)Nc2ccccc2)C(c2ccccc2)C1 (configuration not stated)
TGI (DLD-1 colon): > 100 µM | TGI (M19-MEL melanoma): > 100 µM | TGI (RXF-631 renal): > 100 µM | TGI (KM20L2 colon): > 100 µM | TGI (SNB-78 CNS): > 100 µM

Cc1ccc(C(=NN=C(N)N)c2ccc(C)cc2)cc1
GI50 (HS 578T breast): 0.424 µM | TGI (HS 578T breast): 3.69 µM

O=C(c1cccc(O)c1O)c1cn(Cc2ccc(F)cc2)c2cccc(O)c12
GI50 (HS 578T breast): 3.42 µM | TGI (HS 578T breast): 20.6 µM

CC12CCCC(O)C1CCC1=CC3(CCC12)SCCS3 (configuration not stated)
TGI (MDA-N): > 10 µM
